The target in this assay is Growth hormone secretagogue receptor type 1 (Homo sapiens, UniProt Q92847). Nature of the assay: Determination of Human GHSR Agonist Activity. The text has this: This method was used to determine the agonism effect of the compound of the invention on the activity of human GHSR protein expressed in human GHSR/CHO stable cell line.
Growth hormone secretagogue receptor type 1, sequence (Q92847 whole entry): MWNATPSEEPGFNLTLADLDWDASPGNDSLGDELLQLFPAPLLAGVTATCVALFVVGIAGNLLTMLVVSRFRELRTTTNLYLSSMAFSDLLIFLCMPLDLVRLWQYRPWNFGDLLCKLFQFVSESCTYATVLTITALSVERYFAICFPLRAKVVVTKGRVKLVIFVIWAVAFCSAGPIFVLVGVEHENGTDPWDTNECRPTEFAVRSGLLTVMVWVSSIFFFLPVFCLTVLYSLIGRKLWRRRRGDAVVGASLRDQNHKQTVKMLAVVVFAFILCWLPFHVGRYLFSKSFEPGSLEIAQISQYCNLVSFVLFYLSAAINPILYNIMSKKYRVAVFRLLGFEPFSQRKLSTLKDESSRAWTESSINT
Usually EC50 stands for the midpoint of the concentration-response curve. Higher therefore signals a less potent agent. On to `Cc1oc(=O)oc1COC(=O)NC(C)(C)C(=O)N[C@H](COCc1ccccc1)C(=O)N1CCC2(CC1)CN(S(C)(=O)=O)c1ccccc12` [US20240190875, Example 17], for which the EC50 amounted to 0.0245 µM. With `CC(C)C(=O)OCOC(=O)NC(C)(C)C(=O)N[C@H](COCc1ccccc1)C(=O)N1CCC2(CC1)CN(S(C)(=O)=O)c1ccccc12` [US20240190875, Example 15], the concentration giving a half-maximal response (EC50) turned out to be 0.0043 µM. For `CC(C)(NC(=O)CN)C(=O)N[C@H](COCc1ccccc1)C(=O)N1CCC2(CC1)CN(S(C)(=O)=O)c1ccccc12` [US20240190875, Example 16], the EC50 is 0.0098 µM. In the case of `CC(C)(NC(=O)[C@@H](N)CCC(N)=O)C(=O)N[C@H](COCc1ccccc1)C(=O)N1CCC2(CC1)CN(S(C)(=O)=O)c1ccccc12` [US20240190875, Example 1], the response was half-maximal at 0.0156 µM (EC50). The value for `CC(=O)/C=C(/C)NC(C)(C)C(=O)N[C@H](COCc1ccccc1)C(=O)N1CCC2(CC1)CN(S(C)(=O)=O)c1ccccc12` [US20240190875, Example 19] was 0.0243 µM. `CC(C)(C)C(=O)OCOC(=O)NC(C)(C)C(=O)N[C@H](COCc1ccccc1)C(=O)N1CCC2(CC1)CN(S(C)(=O)=O)c1ccccc12` [US20240190875, Example 21] came in with a concentration giving a half-maximal response (EC50) of 0.0183 µM. The EC50 values of the last two compounds are within 1.5-fold of each other. The same measure for `C[n+]1cccc(C(=O)NC(C)(C)C(=O)N[C@H](COCc2ccccc2)C(=O)N2CCC3(CC2)CN(S(C)(=O)=O)c2ccccc23)c1` [US20240190875, Example 18]: 0.0151 µM; for `CC(=O)OCOC(=O)NC(C)(C)C(=O)N[C@H](COCc1ccccc1)C(=O)N1CCC2(CC1)CN(S(C)(=O)=O)c1ccccc12` [US20240190875, Example 22]: 0.0093 µM.

The record behind these values is BindingDB's records for patent US20240190875 (Changchun Genescience Pharmaceutical Co., 2024).
